Experimental data from patent US6613317B1, “Volatile attractants for diabrotica species” (priority 1988, dated 2003).
Marks after values point to notes of the source that are not given here.

How the values were obtained:
rootworm beetles = assay: Small-plot comparison of insecticides in TEX×PEP dry ground bait; type: in vivo; details: 0.01-0.1% (wt/wt); 1- to 3.3-m2 plots of corn and cucurbits
Procedure: Bait applications to evaluate various insecticides. The relative effectiveness of a variety of insecticides incorporated at 0.01-0.1% (wt/wt) in TEX×PEP dry ground bait was compared. The following insecticides were tested: bendiocarb, carbaryl, carbofuran, methomyl, oxamyl; dimethoate, malathion, isofenphos, phospholan, and mephospholan; and permethrin, cypermethrin, fenvalerate, and flucythrinate. […] The overall greater effectiveness of the carbamates in these small-plot tests is attributed to their rapid kill and lack of repellent effect. The pyrethroids were somewhat repellent to the rootworm beetles.

[1] = tested on: western corn rootworm (WCR) adults; assay: Sticky trap attraction in corn, estragole analogues (Example 3); type: in vivo, Diabrotica virgifera virgifera; details: 100 mg per trap
Summary of the method: (§1)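 Cotton wicks dosed with 100 mg or 100 μL attractant per trap on TangleTrap-coated cartons, four replicates 10 m apart on 1 m posts at field edges of hybrid or sweet corn. Mean beetles caught after ~24 h; log-transformed ANOVA with Duncan's test, P=0.05.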

[2] = tested on: southern corn rootworm (SCR) adults; assay: Sticky trap attraction in corn, estragole analogues (Example 3); type: in vivo, Diabrotica undecimpunctata howardi; details: September 11; 100 mg per trap; n = 4
Summary of the method: as §1

[3] = tested on: western corn rootworm (WCR) adults; details: cited from earlier work
SCR = assay: Limit of response rating of squash blossom volatiles on sticky traps (Example 5); type: in vivo, Diabrotica undecimpunctata howardi; details: 24 hour; four replicate traps; 0.01 mg to 200 mg
Summary of the method: (§2)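 Adult Diabrotica beetles were tested against cylindrical sticky traps baited with cotton wicks holding 0.01 mg to 200 mg of individual Cucurbita maxima blossom volatiles. Response limit rated by trap catch.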

D. v. virgifera [4] = assay: Sticky trap attraction in prairie habitat, Trelease Woods (Example 2); type: in vivo, Diabrotica virgifera virgifera; details: 100 mg per trap, n = 4
Procedure: (§3) The candidate lures in all experiments were purchased commercially and exceeded 98% purity. The test chemicals were applied by capillary micropipettes to cotton dental wicks which were attached to the tops of 1.0 liter cylindrical paper cartons covered with TangleTrap™ (Tanglefoot Co., Grand Rapids, Mich.). The sticky trap techniques used were as described in Example 1. Cinnamyl alcohol and para-methoxycinnamaldehyde, which are solids, were dissolved in glass-distilled acetone prior to dosing the cotton wicks. […]. Control traps had untreated cotton wicks. Four replicates of treated and untreated traps were randomly positioned 10 meters apart on top of 1 m high posts along the border of a eight foot wide strip cut through the middle of a 4.05 ha relict prairie at Trelease Woods (ca. two miles northeast of Urbana, Ill.). The field consisted primarily of Andropogon gerardii Vitman (big bluestem) and a variety of composites. The tests were conducted in mid-August of two years and were timed to coincide with the presence of D. cristata and D. barberi adults in the flower heads of Canada thistle (Carduus arvensis Robson). In the second year, several new attractants of D. v. virgifera and D. barberi were tested in Trelease Woods and along the edge of a 0.8 ha field of hybrid corn located at the Pomology South Farms, Urbana, Ill. Attraction of Diabrotica species to the various lures was measured by the mean number of beetles caught after 24-h. On one date in late August of the first year, D. cristata and D. barberi were removed from the traps and sexed in the laboratory. The significance of treatments in all tests was determined by an analysis of variance and the individual means were separated by Duncan's multiple range test (Statistical Package for Social Science, Nie, et al., SPSS: statistical package for the social sciences, 2nd ed. McGraw-Hill, New York (1975). Data were logarithmically transformed for statistical analysis and the means and standard deviations are presented for the untransformed data.

WCR = assay: Limit of response rating of squash blossom volatiles on sticky traps (Example 5); type: in vivo, Diabrotica virgifera virgifera; details: 24 hour; for Attractant Rating WCR (by limit of response): four replicate traps, 0.01 mg to 200 mg; for LR for WCR: sticky traps
Summary of the method: as §2

D. cristata = assay: Sticky trap attraction in prairie habitat, Trelease Woods (Example 2); type: in vivo, Diabrotica cristata; details: 100 mg per trap, n = 4
Procedure: as §3

D. u. howardi [5] = assay: as above; type: in vivo, Diabrotica undecimpunctata howardi; details: 100 mg per trap, n = 4
Procedure: as §3

D. barberi [6] = assay: Sticky trap attraction along hybrid corn, Pomology South Farms (Example 2); type: in vivo, Diabrotica barberi; details: 100 mg per trap, n = 4
Procedure: (§4) The candidate lures in all experiments were purchased commercially and exceeded 98% purity. The test chemicals were applied by capillary micropipettes to cotton dental wicks which were attached to the tops of 1.0 liter cylindrical paper cartons covered with TangleTrap™ (Tanglefoot Co., Grand Rapids, Mich.). The sticky trap techniques used were as described in Example 1. Cinnamyl alcohol and para-methoxycinnamaldehyde, which are solids, were dissolved in glass-distilled acetone prior to dosing the cotton wicks. All treatments were applied at a dosage of 100 mg per trap. 1,2,4-trimethoxybenzene, indole, and trans-cinnamaldehyde were mixed in a ratio of 1:1:1, by weight, immediately prior to dosing the cotton wicks. Control traps had untreated cotton wicks. Four replicates of treated and untreated traps were randomly positioned 10 meters apart on top of 1 m high posts along the border of a eight foot wide strip cut through the middle of a 4.05 ha relict prairie at Trelease Woods (ca. two miles northeast of Urbana, Ill.). The field consisted primarily of Andropogon gerardii Vitman (big bluestem) and a variety of composites. The tests were conducted in mid-August of two years and were timed to coincide with the presence of D. cristata and D. barberi adults in the flower heads of Canada thistle (Carduus arvensis Robson). In the second year, several new attractants of D. v. virgifera and D. barberi were tested in Trelease Woods and along the edge of a 0.8 ha field of hybrid corn located at the Pomology South Farms, Urbana, Ill. Attraction of Diabrotica species to the various lures was measured by the mean number of beetles caught after 24-h. On one date in late August of the first year, D. cristata and D. barberi were removed from the traps and sexed in the laboratory. The significance of treatments in all tests was determined by an analysis of variance and the individual means were separated by Duncan's multiple range test (Statistical Package for Social Science, Nie, et al., SPSS: statistical package for the social sciences, 2nd ed. McGraw-Hill, New York (1975). Data were logarithmically transformed for statistical analysis and the means and standard deviations are presented for the untransformed data.

D. v. virgifera [7] = assay: as above; type: in vivo, Diabrotica virgifera virgifera; details: 100 mg per trap, n = 4
Procedure: as §4

NCR = assay: Limit of response rating of squash blossom volatiles on sticky traps (Example 5); type: in vivo, Diabrotica barberi; details: 24 hour; four replicate traps; 0.01 mg to 200 mg
Summary of the method: as §2

D. barberi [8] = assay: Sticky trap attraction in prairie habitat, Trelease Woods (Example 2); type: in vivo, Diabrotica barberi; details: 100 mg per trap, n = 4
Procedure: as §3

D. u. howardi [9] = assay: Sticky trap attraction along hybrid corn, Pomology South Farms (Example 2); type: in vivo, Diabrotica undecimpunctata howardi; details: 100 mg per trap, n = 4
Procedure: as §4

[10] = tested on: western corn rootworm (WCR) adults; assay: Sticky trap attraction in sweet corn plots (Example 1); type: in vivo, Diabrotica virgifera virgifera; details: for Mean number of WCR per trap (±standard deviation): n = 4
Summary of the method: (§5)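 Field trapping in sweet-corn plots beside a Blue Hubbard squash trap crop; lures on mineral-oil-impregnated cotton wicks atop sticky paper-carton traps on 1-m posts, 4 replicates in randomized complete blocks. Beetles counted after 24 h; VIPAE/VIP/TIC mixtures and single components at 1–300 mg per trap, ANOVA/Duncan at P=0.05.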

[11] = tested on: southern corn rootworm (SCR) adults; assay: as above; type: in vivo, Diabrotica undecimpunctata howardi; details: for Mean number of SCR per trap (±standard deviation): n = 4
Summary of the method: as §5

[12] = August 4, second year, each compound 20 mg per trap
[13] = August 7, second year, each compound 20 mg per trap
[14] = August first year, South Farms, 24 h, single compounds 100 mg per trap, mixture 20 mg of each component
[15] = August first year, single compounds 100 mg per trap, mixture 20 mg each component

For `CNC(=O)ON=C(C)SC` [methomyl], the “relative effectiveness of insecticides in TEX×PEP dry ground bait” value (“relative effectiveness of insecticides” below) (rootworm beetles) was “more effective than the pyrethroids”.
In the case of `COC(=O)C=Cc1ccc(OC)cc1` [XIV, 4-methoxycinnamic acid methyl ester], the “Mean number of WCR adults per sticky trap (±standard deviation) after 24 hours” value ([1]; September 11, n = 4) is reported as 1.0 ± 1.1^a per sticky trap, the melting point is reported as 87 to 89 °C and the “Mean number of SCR adults per sticky trap (±standard deviation) after 24 hours” value [2] is reported as 0.7 ± 1.5^a per sticky trap.
In the case of `CCC(=O)OC(C)CCCCCC(C)CC` (stereo not shown) [8-methyl-2-decylpropanoate], the “amount per sticky trap that attracted male WCR” value ([3]; per sticky trap) is given as 5 µg.
In the case of `CNC(=O)Oc1cccc2c1OC(C)(C)C2` [carbofuran], the “relative effectiveness of insecticides” value (rootworm beetles) is reported as “more effective than the pyrethroids”.
With `CNC(=O)Oc1cccc2c1OC(C)(C)O2` [bendicarb, bendiocarb] the “relative effectiveness of insecticides” value (rootworm beetles) was “more effective than the pyrethroids”.
With `CNC(=O)Oc1cccc2ccccc12` [carbaryl] the “relative effectiveness of insecticides” value (rootworm beetles) was “more effective than the pyrethroids”.
With `CCOP(=S)(NC(C)C)Oc1ccccc1C(=O)OC(C)C` (stereo not shown) [Isofenphos, isofenphos] the “relative effectiveness of insecticides” value (rootworm beetles) was “most effective of the organophosphorus insecticides”.
In the case of `CC(=O)/C=C/C1=C(C)CCCC1(C)C` [β-ionone], the “Attractant Rating SCR (by limit of response)” value (SCR) is reported as 0 (200), the “Mean number of D. v. virgifera per day (±standard deviation)” value (D. v. virgifera [4]; August 11, 1987) is reported as 4.0 ± 0.8^b per day and the “Mean number of D. v. virgifera per day (±standard deviation)” value (D. v. virgifera [4]; August 14, 1987) is reported as 2.3 ± 1.3^b per day. The “Attractant Rating WCR (by limit of response)” value (WCR) was “+4 (1-3)”, the “LR for WCR” value (WCR) was 3 mg and the “Mean number of D. cristata per day (±standard deviation)” value (D. cristata; August 11, 1987) was 17.3 ± 8.7^b per day. The “Mean number of D. cristata per day (±standard deviation)” value (D. cristata; August 14, 1987) was 5.3 ± 2.2^b per day, the “Mean number of D. u. howardi per day (±standard deviation)” value (D. u. howardi [5]; August 11, 1987) was 0.3 ± 0.5^a per day and the “Mean number of D. u. howardi per day (±standard deviation)” value (D. u. howardi [5]; August 14, 1987) was 0.0^a per day. The “Mean number of D. barberi per stick trap per day (±standard deviation) in corn” value (D. barberi [6]; August 7) was 0.5 ± 0.7^a per stick trap per day, the “Mean number of D. barberi per stick trap per day (±standard deviation) in corn” value (D. barberi [6]; August 18) was 1.5 ± 1.0^a per stick trap per day and the “Mean number of D. v. virgifera per stick trap per day (±standard deviation) in corn” value (D. v. virgifera [7]; August 7) was 263.5 ± 94.6^cd per stick trap per day. For the same compound, the “Mean number of D. v. virgifera per stick trap per day (±standard deviation) in corn” value (D. v. virgifera [7]; August 18) was 89.0 ± 18.2^b per stick trap per day, the “Attractant Rating NCR (by limit of response)” value (NCR) was 0 (200) and the “Mean number of D. barberi per day (±standard deviation)” value (D. barberi [8]; August 11, 1987) was 0.3 ± 0.5^ab per day. The “Mean number of D. barberi per day (±standard deviation)” value (D. barberi [8]; August 14, 1987) was 0.3 ± 0.5^a per day, the “Mean number of D. u. howardi per stick trap per day (±standard deviation) in corn” value (D. u. howardi [9]; August 7) was 1.8 ± 2.4^a per stick trap per day and the “Mean number of D. u. howardi per stick trap per day (±standard deviation) in corn” value (D. u. howardi [9]; August 18) was 0.5 ± 0.7^a per stick trap per day.
For `CCOc1ccc(OC)cc1` [VI, 4-methoxyphenyl ethyl ether], the “Relative percent activity as compared with the highest mean in the column (WCR)” value ([1]; August 29) was 8%, the “Mean number of WCR per sticky trap (±standard deviation) after 24 hours” value ([1]; August 29, n = 4) was 12.0 ± 1.8 per sticky trap and the “Relative percent activity as compared with the highest mean in the column (WCR)” value ([1]; July 30) was 39%. The “Mean number of WCR per sticky trap (±standard deviation) after 24 hours” value ([1]; July 30, n = 4) was 32.0 ± 8.4 per sticky trap and the melting point was 34 to 35 °C.
In the case of `c1ccc2[nH]ccc2c1` [Indole], the “relative percent activity (WCR) as compared with the highest mean value for the test date” value [10, 12] is reported as 100%, the “Mean number of WCR per trap (±standard deviation)” value [10, 12] is reported as 51.3 ± 24.4 per trap and the “relative percent activity (WCR) as compared with the highest mean value for the test date” value [10, 13] is reported as 87%. The “Mean number of WCR per trap (±standard deviation)” value [10, 13] was 27.5 ± 11.8 per trap, the “Mean number of WCR per trap (±standard deviation)” value [10, 14] was 3.3 ± 2.1 per trap and the “relative percent activity of the mean WCR trap catch as compared with the highest mean value in the column” value [10, 15] was 49%. The “Attractant Rating SCR (by limit of response)” value (SCR) was 0 (200), the “relative percent activity (SCR) as compared with the highest mean value for the test date” value [11, 12] was 4% and the “Mean number of SCR per trap (±standard deviation)” value [11, 12] was 1.5 ± 1.0 per trap. The “relative percent activity (SCR) as compared with the highest mean value for the test date” value [11, 13] was 6%, the “Mean number of SCR per trap (±standard deviation)” value [11, 13] was 2.8 ± 1.3 per trap and the “Mean number of SCR per trap (±standard deviation)” value [11, 14] was 2.3 ± 2.1 per trap. For the same compound, the “relative percent activity of the mean SCR trap catch as compared with the highest mean value in the column” value [11, 15] was 11%, the “Attractant Rating WCR (by limit of response)” value (WCR) was “+4 (1-3)” and the “LR for WCR” value (WCR) was 1 mg. For the same compound, the “LR values for WCR attraction (literature)” value ([3]; in vivo) was 1 mg and the “Attractant Rating NCR (by limit of response)” value (NCR) was 0 (200).
